Measured values: publication PMC6093661, “Vitamin E hydroquinone is an endogenous regulator of ferroptosis via redox control of 15-lipoxygenase” (PLoS ONE, 2018)
“And” between values parts separate entries of the source, which are not always exact repeats. Equal entries are not always repeated. Where two headings read alike, the source gives them in different places.

Columns and labels:
[1] = molecular target: T1, Rabbit 15-lipoxygenase (rLOX15) (Oryctolagus cuniculus, UniProt P12530); test: Lipoxygenase enzyme inhibition assay; assay type: biochemical; details: for activity at 100 µM: read-out: 15-Lipoxygenase Enzyme Assay % activity at 100 μM; for IC50: 50 μM arachidonic acid substrate
T1 construct: purchased Enzo Life Sciences, Inc. BML-PL015
T1 sequence (P12530 1-663): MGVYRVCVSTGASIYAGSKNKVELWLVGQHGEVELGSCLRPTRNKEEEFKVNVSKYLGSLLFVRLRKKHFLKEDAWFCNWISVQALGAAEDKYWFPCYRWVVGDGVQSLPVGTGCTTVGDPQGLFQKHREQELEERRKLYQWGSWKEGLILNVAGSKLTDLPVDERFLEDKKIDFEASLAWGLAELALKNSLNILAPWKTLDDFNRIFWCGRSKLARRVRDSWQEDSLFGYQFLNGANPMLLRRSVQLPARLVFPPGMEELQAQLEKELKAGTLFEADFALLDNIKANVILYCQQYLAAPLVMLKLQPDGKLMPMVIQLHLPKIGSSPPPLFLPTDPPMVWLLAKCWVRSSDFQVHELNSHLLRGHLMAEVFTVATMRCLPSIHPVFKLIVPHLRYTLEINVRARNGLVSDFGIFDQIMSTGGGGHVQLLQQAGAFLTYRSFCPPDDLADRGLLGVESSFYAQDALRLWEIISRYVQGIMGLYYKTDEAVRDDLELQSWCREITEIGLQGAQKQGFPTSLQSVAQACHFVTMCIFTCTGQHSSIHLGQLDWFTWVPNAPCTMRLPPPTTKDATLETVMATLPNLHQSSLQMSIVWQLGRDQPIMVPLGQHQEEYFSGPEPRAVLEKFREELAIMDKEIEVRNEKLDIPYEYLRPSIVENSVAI
Protocol: Rabbit 15-lipoxygenase (rLOX15, part number BML-PL015, lot number 3-P9009a) was obtained from Enzo Life Sciences, Inc. Sodium cholate (part number C6445, lot number 094K0209) was obtained from Sigma-Aldrich.
Stock solutions of test compounds were prepared in DMSO and then diluted to final assay concentrations in cholate mix such that final cholate and DMSO concentrations were maintained at 0.2%.

[2] = tested on: Mouse striatal Q7 cells (STHdhQ7/Q7); test: RSL3 ferroptosis cell rescue (cellular survival assay, CellTiter-Glo)
Q7 cells [3] = test: RSL3-induced loss of Q7 cell viability; assay type: cell-based, mouse
Protocol: Ferroptotic cell death was induced in Q7 cells using RSL3, a GPX4 inhibitor previously described. All four stereoisomers of RSL3 were synthesized and purified using published methods. […] To assess compound rescue activity and potency from ferroptotic cell death, Q7 cells were seeded in clear bottom, black wall tissue culture-treated polystyrene plates (Corning) using either an electronic multichannel pipette or a Multidrop™ Combi Reagent Dispenser (ThermoFisher Scientific). Cells were incubated for 5 hours at 33°C in an atmosphere with 95% humidity and 5% CO2 to allow attachment of the cells to the culture plate. Test compounds were administered to the desired final concentrations using a D300e Digital Dispenser (Tecan), followed within 15 minutes by RSL3 (2 μM final concentration). DMSO diluent was back-filled to a final concentration of 0.3% (v/v). Cell plates were incubated at 33°C (5% CO2, 95% humidity) for 18 hours. After a 15-minute equilibration to room temperature, cell number/viability was assessed using the CellTiter-Glo® 2.0 Cell Titer Glo 2.0 reagent (a luminescence-based assay to quantitate ATP; Promega) which was added using the Multidrop™ Combi Reagent Dispenser (Thermo Fisher Scientific). After 15 minutes of incubation at room temperature, the luminescence (100 ms integration time) per well was determined using the BioTek Synergy plate reader. Data was imported into and analyzed using Dotmatics Studies software suite. EC50 values for each compound were estimated using standard four-parameter curve fitting algorithms. pEC50 is defined as negative-log10 (EC50) in M units.

Q7 cells [4] = test: Cellular lipid oxidation assay (BODIPY 581/591 C11, RSL3-treated Q7 cells); assay type: cell-based, mouse; details: RSL3 2 μM, 6-point titration, time-lapse microscopy
Protocol: Ferroptosis was induced by RSL3 (2 μM final concentration) in Q7 cells as described above. The protective activity of co-treated compounds was assessed also as described above. The rate of cellular lipid oxidation after GPX4 inhibition was assessed by monitoring the time-dependent changes in green fluorescence of cells pre-labeled with BODIPY™ 581/591 C11 dye (5 μM, 30-minute labeling period; Thermo Fisher/Invitrogen) using the IncuCyte S3 live-cell imaging apparatus (Sartorius) using a 10x objective. Cells (three images per field; at least three replicate wells per condition) were imaged once hourly for up to 18 hours after compound and RSL3 addition. Quantification of cell images was performed using the IncuCyte Zoom software using the Basic Analyzer tool which utilized an algorithm that calculated the total green-positive area per well where “green-positive” was defined as 1.45 times the local background-subtracted fluorescent signal. After a 2-3-hour lag period post-RSL3 treatment, the cellular green fluorescence signal began increasing. The rate of change in total green-positive area per well from 3–9 hours post-compound treatment was calculated, then expressed relative to that observed in the RSL3-only control treatment group, which was defined as 100%.

[5] = ORAC (oxygen radical absorbance capacity) assay; details: average of 25 and 12.5 μM compound; mean, SEM, n = 6
Protocol: ORAC assay kits were purchased from Cell Biolabs. Assays were performed per the manufacturer’s instructions for lipophilic samples with minor modifications. DMSO stock solutions of compounds were diluted in an anaerobic glovebox to final concentrations of 25 and 12.5 μM in triplicate. A standard curve of Trolox® between 0–100 μM in triplicate per concentration was also generated on each assay plate. Diluted compounds and standards were removed from the glovebox and reactions initiated by addition of aerobic fluorescein reagent and radical initiator. Fluorescein fluorescence was monitored at excitation wavelength of 480 nm and emission wavelength of 520 nm every minute for one hour. AUC analysis was performed as described in the kit protocol. The “Trolox equivalents” at each concentration of test compound were calculated and the average Trolox equivalents at the two compound concentrations are presented. The errors were determined by propagating errors from the SEMs of the triplicate determinations to the averages across the two triplicate determinations.

[6] = Radical-trapping antioxidant (RTA) activity assay in DOPC liposomes
[7] = tested on: 15-HETE release from Q7 cells; test: Targeted arachidonate metabolite release cellular assay (RSL3-treated Q7 cells); assay type: cell-based, mouse; details: RSL3 co-treatment, compound 10 μM
Protocol: Ferroptosis was initiated by RSL3 (2 μM final concentration) in Q7 cells as described above. The protective activity of co-treated compounds was assessed also as described above. Four to five hours after RSL3 treatment, the conditioned medium was collected into 1.2-mL cluster tubes containing ice-cold acetonitrile at a ratio of 1:2. Tubes were snap frozen on dry ice and stored at -80°C.
Prior to analysis, samples were thawed on wet ice and then vortexed briefly. Samples were centrifuged at 4000 rpm for 15min at 4°C. Supernatant (40 μL) was transferred to a 96-well injection plate and 10 μL of both internal standard and HPLC grade water were added. A Shimadzu Nexera MP system coupled to a Sciex 6500 Qtrap and configured for micro-flow was used to analyze all samples. Samples were maintained at 4°C in the Nexera MP autosampler for the duration of the analytical run.
A Thermo Gold-C8 column (1.9 μm, 1.0 x 100 mm) operated at 45°C was used for chromatographic separation. The total run time of the liquid chromatography method was 10 min. Mobile phase A consisted of water with 0.1% formic acid. Mobile phase B was composed of 0.1% formic acid in 3:1 acetonitrile:isopropyl alcohol. Gradient elution was employed, with mobile phase B being ramped from 5% at 0min, to 50% at 2 min, and finally 98% at 7.5 min. Electrospray conditions for the μLC-ESI-MS/MS method were optimized for a flow rate of 125 μL/min and were as follows: Ion spray voltage was set to -4500 V, temperature of 250°C, curtain gas of 20, CAD gas of 10, and ion source gas 1 and 2 of 20 and 40 psi, respectively. Analyzer parameters were optimized for each compound using a combination of manual tuning and compound optimization. The following MRM transitions were used to quantify concentrations of 15-HETE, 12-HETE and Arachidonic Acid (AA). 15-HETE: 319→219; 12-HETE: 319→179; AA: 303→259.

[8] = Mus musculus, 18 h, read-out: RSL3 Ferroptosis Cell Assay Average EC50, Q7 cells, RSL3 2 μM, 18 h co-treatment, CellTiter-Glo 2.0

Row | Compound | activity at 100 µM ([1]; rabbit 15-LO, compound 100 μM) [%] | EC50 [2, 8] [nM] | IC50 ([1]; rabbit 15-LO) [nM] | other results
1 | Cc1c(C)c2c(c(C)c1O)CC[C@@](C)(CCC(=O)O)O2 [α-CEHC] | 24 | 8510 |  | 
2 | CC(C)=CCC/C(C)=C/CC/C(C)=C/CC[C@@](C)(O)CCc1cc(O)c(C)c(C)c1O [γT3HQ, γ-tocotrienol hydroquinone] | 7 | 36 | 1120 | 
3 | COC(=O)c1ccc([C@H]2c3[nH]c4ccccc4c3C[C@H](C(=O)OC)N2C(=O)CCl)cc1 [(1S,3R)-RSL3] |  |  |  | reduction of cell number/viability (Q7 cells [3]; RSL3 2 μM, 18 h, typical): > 80%; onset of cell death after RSL3 addition (Q7 cells [3]; RSL3 ≥1 μM): ~ 5 h; loss of cell viability (Q7 cells [3]; RSL3 ≥1 μM, 18 h after treatment): 80–95%; IC50 (Q7 cells [3]; most potent single stereoisomer of RSL3, read-out: IC50 for inhibition of Q7 cell viability): ~200 nM
4 | CC(C)=CCC/C(C)=C/CC/C(C)=C/CC[C@]1(C)CCc2c(C)c(O)c(C)c(C)c2O1 [αT3, α-tocotrienol] | 64 | 167 | > 100000 | fold more potent in inhibiting ferroptosis, tocotrienol vs corresponding tocopherol ([2]; Q7 cells, RSL3, EC50 ratio): ~ 30 fold
5 | Cc1cc(O)cc2c1O[C@](C)(CCC[C@H](C)CCC[C@H](C)CCCC(C)C)CC2 [δT, δ-tocopherol] | 45 | 5670 |  | 
6 | CC(C)=CCC/C(C)=C/CC/C(C)=C/CC[C@]1(C)CCc2cc(O)c(C)c(C)c2O1 [γT3, γ-tocotrienol] |  |  |  | activity at 100 µM [1]: 33%
7 | Cc1c(O)cc2c(c1C)O[C@](C)(CCC[C@H](C)CCC[C@H](C)CCCC(C)C)CC2 [γT, γ-tocopherol] | 34 | 3220 |  | 
8 | CC(C)=CCC/C(C)=C/CC/C(C)=C/CC[C@@](C)(O)CCC1=CC(=O)C(C)=C(C)C1=O [γT3Q, γ-tocotrienol quinone] |  | 52 |  | 
9 | Cc1cc(O)cc(CC[C@](C)(O)CCC[C@H](C)CCC[C@H](C)CCCC(C)C)c1O [δTHQ, δ-tocopherol hydroquinone] | 17 | 84 | 2090 | 
10 | CC(C)=CCC/C(C)=C/CC/C(C)=C/CC[C@@](C)(O)CCC1=CC(=O)C=C(C)C1=O [δT3Q, δ-tocotrienol quinone] |  | 163 |  | 
11 | CC(C)=CCC/C(C)=C/CC/C(C)=C/CC[C@@](C)(O)CCc1c(C)c(O)c(C)c(C)c1O [αT3HQ, α-tocotrienol hydroquinone] | 9 | 43 | 1990 | 
12 | CC1=C(C)C(=O)C(CC[C@](C)(O)CCC[C@H](C)CCC[C@H](C)CCCC(C)C)=CC1=O [γTQ, γ-tocopherol quinone] |  | 101 |  | 
13 | CC1=CC(=O)C=C(CC[C@](C)(O)CCC[C@H](C)CCC[C@H](C)CCCC(C)C)C1=O [δTQ] |  | 236 |  | 
14 | CC(C)=CCC/C(C)=C/CC/C(C)=C/CC[C@]1(C)CCc2cc(O)cc(C)c2O1 [δT3, δ-tocotrienol] | 46 | 517 |  | 
15 | CC(C)=CCC/C(C)=C/CC/C(C)=C/CC[C@@](C)(O)CCc1cc(O)cc(C)c1O [δT3HQ, δ-tocotrienol hydroquinone] | 14 | 146 | 1370 | 
16 | CC(C)=CCC/C(C)=C/CC/C(C)=C/CC[C@@](C)(O)CCC1=C(C)C(=O)C(C)=C(C)C1=O [αT3Q, α-tocotrienol quinone] |  | 43 |  | 
17 | Cc1c(C)c2c(c(C)c1O)CC[C@@](C)(CCC[C@H](C)CCC[C@H](C)CCCC(C)C)O2 [αT, α-tocopherol, reference compound] | 78 | 5160 | > 100000 | effect on RSL3-induced lipid oxidation (BODIPY 581/591 C11 oxidation) (Q7 cells [4]): prevented; ORAC Antioxidant Activity Assay Trolox Equiv. [5]: 0.073 Trolox Equiv. and 0.073 ± 0.008 Trolox Equiv.; inhibition of rabbit 15-LO enzyme activity ([1]; arachidonic acid as substrate, up to 100 μM): did not; Radical Trapping Assay AUC (Rel. Control) ([6]; 50 μM compound, 2 mol% in DOPC liposomes, BODIPY 581/591 C11 quenching, liposome-only control = 1): 5.123; RTA AUC fold greater than αTQ and αTHQ ([6]; DOPC liposomes, AUC relative to liposome only control): 2.5–4 fold; EC50 ([2]; read-out: RSL3 Ferroptosis Cell Assay Average EC50, Q7 cells, RSL3 2 μM, 18 h co-treatment, CellTiter-Glo 2.0): 5200 ± 2800 nM; reduction of RSL3-induced 15-HETE production [7]: 19%
18 | Cc1c(O)cc(CC[C@](C)(O)CCC[C@H](C)CCC[C@H](C)CCCC(C)C)c(O)c1C [γTHQ, γ-tocopherol hydroquinone] | 18 | 64 | 2190 | 
